Data: patent publication US11419866B2, “Pharmaceutical composition for sustained release delivery of buprenorphine” (Foresee Pharmaceuticals Co., Ltd., priority 2018, dated 2022)
Marks after values point to notes of the source that are not given here.

How the values were obtained:
[1] = Color stabilization by antioxidant in buprenorphine formulation, visual inspection (Example 3); assay type: physicochemical; conditions: overtime under stress condition
[2] = Solubility of buprenorphine in BA/OA combination vehicles at room temperature

O=C(O)CS [TGA, thioglycolic acid]
capacity of color mitigation in buprenorphine formulation [1]: stronger capacity of color mitigation

N[C@@H](CCC(=O)N[C@@H](CS)C(=O)NCC(=O)O)C(=O)O [Glu, glutathione]
capacity of color mitigation in buprenorphine formulation [1]: milder color stabilizing effect

CO[C@]12CC[C@@]3(C[C@@H]1[C@](C)(O)C(C)(C)C)[C@H]1Cc4ccc(O)c5c4[C@@]3(CCN1CC1CC1)[C@H]2O5 [buprenorphine, (25)-2-[(−)-(5R,6R,7R,14S)-9a-cyclo-propyl-methyl-4,5-epoxy-6,14-ethano-3-hydroxy-6-methoxymorphinan-7-yl]-3,3-di-methylbutan-2-ol]
Solubility of buprenorphine ([2]; BA/OA vehicle, OA wt % 0, room temperature): 21.2%
Solubility of buprenorphine ([2]; BA/OA vehicle, OA wt % 5, room temperature): 22.5%
Solubility of buprenorphine ([2]; BA/OA vehicle, OA wt % 10, room temperature): 25.4%
Solubility of buprenorphine ([2]; BA/OA vehicle, OA wt % 15, room temperature): 30.7%*
Solubility of buprenorphine ([2]; BA/OA vehicle, OA wt % 18, room temperature): 30.8%*
Solubility of buprenorphine ([2]; BA/OA vehicle, OA wt % 30, room temperature): 33.1%*
Solubility of buprenorphine ([2]; BA/OA vehicle, OA wt % 40, room temperature): 36.2%*
Solubility of buprenorphine ([2]; OA wt % 100, room temperature): 27.7%

O=C(O)CCCCC1CCSS1 (stereo not shown) [LipA, lipoic acid]
capacity of color mitigation in buprenorphine formulation [1]: milder color stabilizing effect

OCC(O)CS (stereo not shown) [MTG, monothioglycerol]
capacity of color mitigation in buprenorphine formulation [1]: stronger capacity of color mitigation
benzyl aldehyde formation promoted by thiolated antioxidant (BA/OA solution): positive benzyl aldehyde formation
benzyl aldehyde formation with addition of VC (thiolated antioxidant containing BA/OA solution): inhibition effect of benzyl aldehyde

N[C@@H](CS)C(=O)O [Cys, cysteine]
capacity of color mitigation in buprenorphine formulation [1]: milder color stabilizing effect

O=C([O-])CS.[Na+] [STG, sodium thioglycolate]
capacity of color mitigation in buprenorphine formulation [1]: stronger capacity of color mitigation
